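Where inhibition never reached the appropriate level, the endpoint shown equals the highest concentration tested. Otherwise, values were interpolated linearly from a five-concentration, 48-hour dose response in 96-well plates. TGI: concentration producing complete growth inhibition.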

The subject of one test is DU-145 prostate. Put plainly: NCI-60 cell line screen, 48 h.
Consider `CCCCn1c(N)c(-c2nc3ccccc3o2)sc1=S`, for which the TGI amounted to 35.9 µM.

A further test has as its system MDA-MB-231 breast. The test can be described thus: NCI-60 cell line screen, 48 h.
`Cn1c(=O)c2c(nc3n2CC(=O)N3CCCCl)n(C)c1=O`: the TGI is more than 100 µM.
`C[n+]1ccc(/C2=C3\C=CC(=N3)/C(c3cc[n+](C)cc3)=c3/cc/c([nH]3)=C(\c3cc[n+](C)cc3)C3=N/C(=C(/c4cc[n+](C)cc4)C4C=CC2N4)C=C3)cc1`: the TGI was more than 100 µM.
Still for that read-out and setting: with `CCCCn1c(N)c(-c2nc3ccccc3o2)sc1=S` the figure was 34.3 µM.

The next test deals with A498 renal. Put plainly: NCI-60 cell line screen, 48 h.
For `Cn1c(=O)c2c(nc3n2CC(=O)N3CCCCl)n(C)c1=O`, the TGI is more than 100 µM.
`C[n+]1ccc(/C2=C3\C=CC(=N3)/C(c3cc[n+](C)cc3)=c3/cc/c([nH]3)=C(\c3cc[n+](C)cc3)C3=N/C(=C(/c4cc[n+](C)cc4)C4C=CC2N4)C=C3)cc1` displayed a TGI of more than 100 µM.
The same measure, in the same setting: with `CCCCn1c(N)c(-c2nc3ccccc3o2)sc1=S` the figure was 98.8 µM.

The next test has as its system SW-620 colon. The test can be described thus: NCI-60 cell line screen, 48 h.
Consider `O=[N+]([O-])c1cccc2nnccc12`, for which the TGI is more than 100 µM.
On the same count and under the same terms, the value for `Cn1c(=O)c2c(nc3n2CC(=O)N3CCCCl)n(C)c1=O` was more than 100 µM.
On the same count and under the same terms, with `C[n+]1ccc(/C2=C3\C=CC(=N3)/C(c3cc[n+](C)cc3)=c3/cc/c([nH]3)=C(\c3cc[n+](C)cc3)C3=N/C(=C(/c4cc[n+](C)cc4)C4C=CC2N4)C=C3)cc1` the figure was more than 100 µM.

In a further test the test system is SK-MEL-5 melanoma. Put plainly: NCI-60 cell line screen, 48 h.
`O=[N+]([O-])c1cccc2nnccc12` had a TGI of 27 µM.
For `Cn1c(=O)c2c(nc3n2CC(=O)N3CCCCl)n(C)c1=O`, the TGI is more than 100 µM.
Still for that read-out and setting: with `C[n+]1ccc(/C2=C3\C=CC(=N3)/C(c3cc[n+](C)cc3)=c3/cc/c([nH]3)=C(\c3cc[n+](C)cc3)C3=N/C(=C(/c4cc[n+](C)cc4)C4C=CC2N4)C=C3)cc1` the figure was more than 100 µM; with `CCCCn1c(N)c(-c2nc3ccccc3o2)sc1=S`, 34.9 µM.

A further test deals with SK-MEL-2 melanoma. Put plainly: NCI-60 cell line screen, 48 h.
Consider `O=[N+]([O-])c1cccc2nnccc12`, for which the TGI is more than 100 µM.
In the case of `Cn1c(=O)c2c(nc3n2CC(=O)N3CCCCl)n(C)c1=O`, the TGI was more than 100 µM.
Still for that read-out and setting: with `CCCCn1c(N)c(-c2nc3ccccc3o2)sc1=S` the figure was 37.7 µM.

In a further test the test system is BT-549 breast. Put plainly: NCI-60 cell line screen, 48 h.
For `O=[N+]([O-])c1cccc2nnccc12`, the TGI is more than 100 µM.
Turning to `Cn1c(=O)c2c(nc3n2CC(=O)N3CCCCl)n(C)c1=O`, the TGI is more than 100 µM.
Still for that read-out and setting: the value for `C[n+]1ccc(/C2=C3\C=CC(=N3)/C(c3cc[n+](C)cc3)=c3/cc/c([nH]3)=C(\c3cc[n+](C)cc3)C3=N/C(=C(/c4cc[n+](C)cc4)C4C=CC2N4)C=C3)cc1` was more than 100 µM; that for `CCCCn1c(N)c(-c2nc3ccccc3o2)sc1=S` was 75.2 µM.

A further test concerns HCT-15 colon. Put plainly: NCI-60 cell line screen, 48 h.
With `O=[N+]([O-])c1cccc2nnccc12`, the TGI is 28.3 µM.
As to `Cn1c(=O)c2c(nc3n2CC(=O)N3CCCCl)n(C)c1=O`, the TGI is more than 100 µM.
On the same count and under the same terms, with `C[n+]1ccc(/C2=C3\C=CC(=N3)/C(c3cc[n+](C)cc3)=c3/cc/c([nH]3)=C(\c3cc[n+](C)cc3)C3=N/C(=C(/c4cc[n+](C)cc4)C4C=CC2N4)C=C3)cc1` the figure was more than 100 µM; with `CCCCn1c(N)c(-c2nc3ccccc3o2)sc1=S`, 47.5 µM.

A further test has as its system RXF 393 renal. The test can be described thus: NCI-60 cell line screen, 48 h.
In turn, `O=[N+]([O-])c1cccc2nnccc12` gave a TGI of more than 100 µM.
On the same count and under the same terms, with `C[n+]1ccc(/C2=C3\C=CC(=N3)/C(c3cc[n+](C)cc3)=c3/cc/c([nH]3)=C(\c3cc[n+](C)cc3)C3=N/C(=C(/c4cc[n+](C)cc4)C4C=CC2N4)C=C3)cc1` the figure was more than 100 µM; with `CCCCn1c(N)c(-c2nc3ccccc3o2)sc1=S`, more than 100 µM.

The next test relates to SN12C renal. Put plainly: NCI-60 cell line screen, 48 h.
On to `O=[N+]([O-])c1cccc2nnccc12`, for which the TGI was more than 100 µM.
The same measure, in the same setting: with `Cn1c(=O)c2c(nc3n2CC(=O)N3CCCCl)n(C)c1=O` the figure was more than 100 µM; with `C[n+]1ccc(/C2=C3\C=CC(=N3)/C(c3cc[n+](C)cc3)=c3/cc/c([nH]3)=C(\c3cc[n+](C)cc3)C3=N/C(=C(/c4cc[n+](C)cc4)C4C=CC2N4)C=C3)cc1`, more than 100 µM; with `CCCCn1c(N)c(-c2nc3ccccc3o2)sc1=S`, 54.3 µM.

Another test deals with NCI-H23 lung. Put plainly: NCI-60 cell line screen, 48 h.
`O=[N+]([O-])c1cccc2nnccc12` registered a TGI of more than 100 µM.
Same read-out and setting: with `Cn1c(=O)c2c(nc3n2CC(=O)N3CCCCl)n(C)c1=O` the figure was more than 100 µM; with `C[n+]1ccc(/C2=C3\C=CC(=N3)/C(c3cc[n+](C)cc3)=c3/cc/c([nH]3)=C(\c3cc[n+](C)cc3)C3=N/C(=C(/c4cc[n+](C)cc4)C4C=CC2N4)C=C3)cc1`, more than 100 µM.
On the same count and under the same terms, with `CCCCn1c(N)c(-c2nc3ccccc3o2)sc1=S` the figure was 37.6 µM.

A further test concerns EKVX NSCLC. The test can be described thus: NCI-60 cell line screen, 48 h.
The molecule `O=[N+]([O-])c1cccc2nnccc12` registered a TGI of more than 100 µM.
On the same count and under the same terms, with `Cn1c(=O)c2c(nc3n2CC(=O)N3CCCCl)n(C)c1=O` the figure was more than 100 µM.
Turning to `C[n+]1ccc(/C2=C3\C=CC(=N3)/C(c3cc[n+](C)cc3)=c3/cc/c([nH]3)=C(\c3cc[n+](C)cc3)C3=N/C(=C(/c4cc[n+](C)cc4)C4C=CC2N4)C=C3)cc1`, the TGI is more than 100 µM.
As for `CCCCn1c(N)c(-c2nc3ccccc3o2)sc1=S`, the TGI stood at 81.8 µM.

Another test deals with A549 NSCLC. The test can be described thus: NCI-60 cell line screen, 48 h.
As for `O=[N+]([O-])c1cccc2nnccc12`, the TGI was more than 100 µM.
Same read-out and setting: with `Cn1c(=O)c2c(nc3n2CC(=O)N3CCCCl)n(C)c1=O` the figure was more than 100 µM.
The same measure, in the same setting: with `C[n+]1ccc(/C2=C3\C=CC(=N3)/C(c3cc[n+](C)cc3)=c3/cc/c([nH]3)=C(\c3cc[n+](C)cc3)C3=N/C(=C(/c4cc[n+](C)cc4)C4C=CC2N4)C=C3)cc1` the figure was more than 100 µM; with `CCCCn1c(N)c(-c2nc3ccccc3o2)sc1=S`, 29.8 µM.

Another test relates to HCT-116 colon. Put plainly: NCI-60 cell line screen, 48 h.
The molecule `O=[N+]([O-])c1cccc2nnccc12` registered a TGI of 29.4 µM.
Same read-out and setting: the value for `Cn1c(=O)c2c(nc3n2CC(=O)N3CCCCl)n(C)c1=O` was more than 100 µM; that for `C[n+]1ccc(/C2=C3\C=CC(=N3)/C(c3cc[n+](C)cc3)=c3/cc/c([nH]3)=C(\c3cc[n+](C)cc3)C3=N/C(=C(/c4cc[n+](C)cc4)C4C=CC2N4)C=C3)cc1` was more than 100 µM; that for `CCCCn1c(N)c(-c2nc3ccccc3o2)sc1=S` was 24.6 µM.

A further test relates to NCI-H460 lung. Put plainly: NCI-60 cell line screen, 48 h.
Molecule `O=[N+]([O-])c1cccc2nnccc12` showed a TGI of 42.2 µM.
The same measure, in the same setting: the value for `Cn1c(=O)c2c(nc3n2CC(=O)N3CCCCl)n(C)c1=O` was more than 100 µM.
Regarding `C[n+]1ccc(/C2=C3\C=CC(=N3)/C(c3cc[n+](C)cc3)=c3/cc/c([nH]3)=C(\c3cc[n+](C)cc3)C3=N/C(=C(/c4cc[n+](C)cc4)C4C=CC2N4)C=C3)cc1`, the TGI was more than 100 µM.
Same read-out and setting: with `CCCCn1c(N)c(-c2nc3ccccc3o2)sc1=S` the figure was 42.6 µM.

A further test has as its system SR leukemia. Put plainly: NCI-60 cell line screen, 48 h.
Consider `C[n+]1ccc(/C2=C3\C=CC(=N3)/C(c3cc[n+](C)cc3)=c3/cc/c([nH]3)=C(\c3cc[n+](C)cc3)C3=N/C(=C(/c4cc[n+](C)cc4)C4C=CC2N4)C=C3)cc1`, for which the TGI was more than 32.9 µM.
On the same count and under the same terms, with `CCCCn1c(N)c(-c2nc3ccccc3o2)sc1=S` the figure was more than 100 µM.

For the origin of these results see PubChem BioAssay (NCI).
